Source: PubChem BioAssay (NCI)
“And” between values parts separate entries of the source, which are not always exact repeats. Equal entries are not always repeated.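 Method: 48-hour compound exposure of cells in 96-well plates, five concentrations, linear interpolation of endpoints. GI50: concentration for 50% inhibition of growth. At the TGI there is no net growth.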

Experiments:
Assay in all cases: NCI anticancer screen, dose series, 48 h
[1] = tested on: XF 498 CNS
[2] = tested on: LXFL 529 NSCLC
[3] = tested on: HOP-18 NSCLC
[4] = tested on: DMS 273 small cell lung
[5] = tested on: DLD-1 colon
[6] = tested on: MCF7 breast
[7] = tested on: NCI/ADR-RES ovarian
[8] = tested on: DU-145 prostate
[9] = tested on: MDA-MB-231 breast
[10] = tested on: PC-3 prostate

SMILES | TGI [1] [µM] | TGI [2] [µM] | TGI [3] [µM] | TGI [4] [µM] | TGI [5] [µM] | other results
O=[N+]([O-])c1ccc(Sc2c3ccccc3nc3cc(Cl)ccc23)cc1 | 99.6 | > 100 | > 100 | > 1 | > 100 | GI50 [2]: > 100 µM; GI50 [3]: > 100 µM; GI50 [5]: > 100 µM
Cc1nc(C(N)=S)sc1C(=O)/C=C/c1c(O)ccc2ccccc12 | > 100 | > 100 | > 100 | > 100 | > 100 | 
CC(C)(Oc1ccc(/C=C/C(=O)c2ccc(Cl)cc2)cc1)C(=O)Nc1c(Cl)cccc1Cl | 37.7 | 53.9 | > 100 |  | 29.2 | 
CCCCN(CC)CC(C(C)=O)c1c(O)c2ccccc2oc1=O (stereo not given) | > 100 | > 100 | > 100 | > 100 | > 100 | 
O=[N+]([O-])c1ccc(-c2ccc(-c3csc(Nc4ccccc4)n3)o2)cc1 | 32.4 | 32.9 | 29.4 | 49.4 | 65.9 | 
C=C(C)C1C/C=C(/C)CCCC2(CCC3=C(CC(C(=C)C)C/C=C(/C)CCC3)O2)C(=O)C1 (stereo not given) | > 100 | > 100 | > 100 | > 100 | > 100 | 
CCOC(=O)C1SC(=Nc2ccc(Cl)cc2)N=C1C (stereo not given) | 34.2 |  | 42.5 |  | 28.7 | 
Cc1ccccc1NC(=O)C1C(=O)N(c2ccccc2C)C(=O)/C1=N\NC(N)=S (stereo not given) | > 100 | > 100 |  | > 100 | > 100 | 
O=C(/C=C/c1ccccc1)c1ccc(NCc2nc3ccccc3[nH]2)cc1 | 20.5 | 10.8 | 17.6 | 16 | 15.6 | 
Cn1c2c(c3ccccc31)CCN(CCN1CCN(c3cccc(Cl)c3)CC1)C2=O | 34.5 | > 100 | > 100 | > 100 | > 100 | 
Cc1c2ccccc2cc2ccc3oc([N+](=O)[O-])cc3c12 | > 100 | > 100 | 62.8 | > 100 | > 100 | 
CN(C)C(=S)/N=c1\ssc(=S)n1Cc1ccncc1 | 24.9 | 82.1 | 57.6 | 76.3 | 47.4 | 
O=C(N/N=C/c1cccc(F)c1)c1ccncc1 | > 100 | > 100 | > 100 | > 100 | > 100 | 
C/C(=N/NC(=O)C[N+](C)(C)C)C(CN(C)C)C(=O)Nc1ccccc1 (stereo not given) | > 100 | > 100 | > 100 | > 100 | > 100 | 
Cc1ccccc1C(=O)N1CCN(C(=O)c2ccccc2C)CC1 | > 100 | > 100 | > 100 | > 100 | > 100 | 
CCOC(=O)NC(=O)c1cn(CCN2CCN(C(=O)CCCCCCCCCCC(=O)N3CCN(CCn4cc(C(=O)NC(=O)OCC)c(=O)[nH]c4=O)CC3)CC2)c(=O)[nH]c1=O | > 100 | > 100 | > 100 |  | > 100 | 
O=c1oc2ccccc2[n+]([O-])c1-c1ccccc1 | > 100 | > 100 | > 100 | > 100 | > 100 | 
CC(C)(C)c1cc(C=C(C#N)C#N)cc(C(C)(C)C)c1O | 3.13 | 6.59 |  | 5.51 | 42.7 | TGI [6]: 41 µM; GI50 [7]: 0.0629 µM; TGI [7]: 15.1 µM and 41.5 µM; GI50 [8]: 0.0894 µM; TGI [8]: 18.5 µM and 56.8 µM; GI50 [9]: 0.0923 µM; TGI [9]: 0.675 µM; GI50 [10]: 0.0354 µM; TGI [10]: 3.36 µM and 4.17 µM
CCOC(=O)C(NC(=O)c1nc[nH]c1[N+](=O)[O-])C(C)C (stereo not given) | 93.2 | > 100 |  | > 100 | > 100 | 
CC(=O)N1CCC2(c3ccccc3N(C(C)=O)C2c2ccc(O)cc2)C1C(=O)O (stereo not given) | > 100 | > 100 | > 100 | > 100 | > 100 | 
CSC1=Nc2ccccc2N=C(c2ccc(Cl)cc2)C1 | > 100 | > 100 | > 100 |  | > 100 | 
N/N=C1\C(=O)N(CCc2ccccc2)C(=O)C1C(=O)NCCc1ccccc1 (stereo not given) | > 100 | > 100 |  | > 100 | > 100 | 
CCOC(=O)c1cc2c3c(c(O)c(OC)c2s1)N(C(=O)c1cc2c4c(c(O)c(OC)c2s1)N(C(C)=O)CC4)CC3 | 67.8 | > 100 | > 100 | > 100 | > 100 | 
O=c1c2cc(Br)ccc2nc(CCl)n1-c1ccc(O)c([N+](=O)[O-])c1 | 29 | 39.9 |  |  | 33.4 | 
Cc1cc(N(CCC#N)CCC#N)ccc1/C=C(\NC(=O)/C=C/c1ccccc1)C(=O)NN | > 100 | > 100 |  | > 100 | > 100 | TGI [6]: > 100 µM; TGI [7]: > 100 µM; TGI [8]: > 100 µM; TGI [9]: > 100 µM; TGI [10]: > 100 µM
CSC(=S)N/N=C/c1nccc2ccccc12 | 16.4 | 24.6 | 9.78 | > 21.8 | 22.4 | 
COc1ccc2[nH]c3c(c2c1)[C@H](C)C[C@@H]1C(=O)N(c2ccccc2)C(=O)[C@H]31 | 74.1 | > 100 | 46.3 | > 100 | > 100 | 
Cc1c(C(=O)O)oc2ccc([N+](=O)[O-])cc12 | > 100 | > 100 | > 100 | > 100 | > 100 | 
C=CC(OCC)(OCC)OCC | > 100 | > 100 | > 100 | 37.9 | > 100 | 
